Test results as given in paper PMC4734340, “Structural and functional attributes of malaria parasite diadenosine tetraphosphate hydrolase” (Scientific Reports, 2016).

Molecular target: T1, P. falciparum diadenosine tetraphosphate (Ap4A) hydrolase (PfAp4AH) (Plasmodium falciparum, UniProt C0H4F3)
T1 construct: gene PF3D7_0520600; Full length PfAp4AH, recombinant from E. coli, His-tag removed
T1 sequence (C0H4F3 1-152): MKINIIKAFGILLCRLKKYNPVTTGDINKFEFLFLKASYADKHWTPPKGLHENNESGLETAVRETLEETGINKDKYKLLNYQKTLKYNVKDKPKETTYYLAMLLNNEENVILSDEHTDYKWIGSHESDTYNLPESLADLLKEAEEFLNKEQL
Assay: ITC at […] °C (n = […]); also enzyme inhibition IC50 […] and thermal shift (negative ΔTm)
Format: binding

With `Cc1ccc(C(=O)Nc2ccc(S(=O)(=O)O)c3cc(S(=O)(=O)O)cc(S(=O)(=O)O)c23)cc1NC(=O)c1cccc(NC(=O)Nc2cccc(C(=O)Nc3cc(C(=O)Nc4ccc(S(=O)(=O)O)c5cc(S(=O)(=O)O)cc(S(=O)(=O)O)c45)ccc3C)c2)c1` [suramin] as the compound, how does the Kd read?
Its Kd is 18.1 ± 1.1 µM.
